#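 A five-concentration, 48-hour dose response in 96-well plates underlies each endpoint, interpolated linearly between surrounding concentrations. Here, GI50 denotes the concentration required for 50% inhibition of growth. TGI denotes the concentration required for complete inhibition of growth.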
# Experiments:
# Test in all cases: NCI anticancer screen, dose series, 48 h
# UO-31 renal = system: UO-31 renal
# NCI-H522 lung = system: NCI-H522 lung
# NCI-H226 lung = system: NCI-H226 lung
# MALME-3M melanoma = system: MALME-3M melanoma
# TK-10 renal = system: TK-10 renal
# M14 melanoma = system: M14 melanoma
# OVCAR-3 ovarian = system: OVCAR-3 ovarian
# SNB-19 CNS = system: SNB-19 CNS
# SF-268 CNS = system: SF-268 CNS
# SK-MEL-2 melanoma = system: SK-MEL-2 melanoma
smiles,measurement,setting,value
O=C1OCC2=C1C(c1cccc([N+](=O)[O-])c1)c1cc3c(cc1N2CCO)CCC3 (stereo not given),GI50,UO-31 renal,269 nM
same,TGI,UO-31 renal,> 34300 nM
same,GI50,NCI-H522 lung,43.1 nM
same,TGI,NCI-H522 lung,6300 nM
same,GI50,NCI-H226 lung,1770 nM
same,TGI,NCI-H226 lung,49400 nM
same,GI50,MALME-3M melanoma,504 nM
same,TGI,MALME-3M melanoma,35100 nM
same,GI50,TK-10 renal,6420 nM
same,TGI,TK-10 renal,> 50000 nM
same,GI50,M14 melanoma,112 nM
same,TGI,M14 melanoma,17200 nM
same,GI50,OVCAR-3 ovarian,96.1 nM
same,TGI,OVCAR-3 ovarian,518 nM
same,GI50,SNB-19 CNS,200 nM
same,TGI,SNB-19 CNS,> 50000 nM
same,GI50,SF-268 CNS,295 nM
same,TGI,SF-268 CNS,22900 nM
same,GI50,SK-MEL-2 melanoma,2800 nM
same,TGI,SK-MEL-2 melanoma,48000 nM

# — PubChem BioAssay (NCI)
